Measurements from US8916573B2, “Quinazoline-2,4-dione derivatives” (Actelion Pharmaceuticals Ltd., priority 2011, dated 2014).
Values after ≈ are worked out from the molar mass of the structure shown.

The compounds below were run on S. aureus 29213 (assay: Bacterial growth minimal inhibitory concentrations (microdilution, cation-adjusted Mueller-Hinton Broth, CLSI M7-A7)). Conditions: Staphylococcus aureus, 29213; microdilution in cation-adjusted Mueller-Hinton Broth.
Format: cell-based
Protocol: Bacterial Growth Minimal Inhibitory Concentrations: Minimal inhibitory concentrations (MICs; mg/l) were determined in cation-adjusted MuellerHinton Broth by a microdilution method following the description given in “Methods for Dilution Antimicrobial Susceptibility Tests for Bacteria that Grow Aerobically”, Approved standard, 7th ed., Clinical and Laboratory Standards Institute (CLSI) Document M7-A7, Wayne, Pa., USA, 2006. Typical antibacterial test results are given in Table 1 hereafter (MIC in mg/l).

| Compound | MIC |
| --- | --- |
| Cn1c(=O)n(CCC[C@H]2CN(c3ccc4c(c3)NC(=O)CS4)C(=O)O2)c(=O)c2cccc(Cl)c21 [Example 31, 8-chloro-1-methyl-3-{3-[(S)-2-oxo-3-(3-oxo-3,4-dihydro-2H-benzo[1,4]thiazin-6-yl)-oxazolidin-5-yl]-propyl}-1H-quinazoline-2,4-dione] | ≤ 0.016 µg/mL |
| Cn1c(=O)n(CCCC[C@@H]2CN(c3ccc4c(n3)NC(=O)CO4)C(=O)O2)c(=O)c2ccccc21 [Example 52, 1-methyl-3-{4-[(R)-2-oxo-3-(3-oxo-3,4-dihydro-2H-pyrido[3,2-b][1,4]oxazin-6-yl)-oxazolidin-5-yl]-butyl}-1H-quinazoline-2,4-dione] | 0.063 µg/mL (≈ 0.135 µM) |
| Cc1cccc2c1c(=O)n(CCC[C@H]1CN(c3ccc4c(c3)NC(=O)CS4)C(=O)O1)c(=O)n2C [Example 6, 1,5-dimethyl-3-{3-[(S)-2-oxo-3-(3-oxo-3,4-dihydro-2H-benzo[1,4]-thiazin-6-yl)-oxazolidin-5-yl]-propyl}-1H-quinazoline-2,4-dione] | 0.031 µg/mL (≈ 0.0645 µM) |
| O=C1COc2ccc(N3C[C@H](CCCn4c(=O)[nH]c5c(Cl)cccc5c4=O)OC3=O)nc2N1 [Example 24, 8-chloro-3-{3-[(S)-2-oxo-3-(3-oxo-3,4-dihydro-2H-pyrido[3,2-b][1,4]oxazin-6-yl)-oxazolidin-5-yl]-propyl}-1H-quinazoline-2,4-dione] | ≤ 0.016 µg/mL |
| Cn1c(=O)n(CCNC[C@@H]2CN(c3ccc4c(n3)NC(=O)CS4)C(=O)O2)c(=O)c2ccccc21.O=CO [Example 55, 1-methyl-3-(2-{[(R)-2-oxo-3-(3-oxo-3,4-dihydro-2H-pyrido[3,2-b][1,4]thiazin-6-yl)-oxazolidin-5-ylmethyl]-amino}-ethyl)-1H-quinazoline-2,4-dione formate salt] | 0.031 µg/mL |
| COc1cc2[nH]c(=O)n(CCC[C@@H]3CN(c4ccc5c(c4)NC(=O)CS5)C(=O)O3)c(=O)c2cc1OC [Example 39, 6,7-dimethoxy-3-{3-[(R)-2-oxo-3-(3-oxo-3,4-dihydro-2H-benzo[1,4]thiazin-6-yl)-oxazolidin-5-yl]-propyl}-1H-quinazoline-2,4-dione] | 0.25 µg/mL (≈ 0.488 µM) |
| COc1cccc2c(=O)n(CCC[C@@H]3CN(c4ccc5c(c4)NC(=O)CS5)C(=O)O3)c(=O)[nH]c12 [Example 36, 8-methoxy-3-{3-[(R)-2-oxo-3-(3-oxo-3,4-dihydro-2H-benzo[1,4]-thiazin-6-yl)-oxazolidin-5-yl]-propyl}-1H-quinazoline-2,4-dione] | 0.031 µg/mL (≈ 0.0642 µM) |
| COc1c(F)c(F)cc2c(=O)n(CCC[C@H]3CN(c4ccc5c(c4)NC(=O)CS5)C(=O)O3)c(=O)n(C3CC3)c12 [Example 43, 1-cyclopropyl-6,7-difluoro-8-methoxy-3-{3-[(S)-2-oxo-3-(3-oxo-3,4-dihydro-2H-benzo[1,4]thiazin-6-yl)-oxazolidin-5-yl]-propyl}-1H-quinazoline-2,4-dione] | ≤ 0.016 µg/mL |
| COC(=O)/C=C/c1ccc2c(=O)n(CCNCCC3CN(c4ccc5c(c4)NC(=O)CS5)C(=O)O3)c(=O)n(C)c2c1 (racemic) [Example 63, rac-(E)-3-[1-methyl-2,4-dioxo-3-(2-{2-[2-oxo-3-(3-oxo-3,4-dihydro-2H-benzo[1,4]thiazin-6-yl)-oxazolidin-5-yl]-ethylamino}-ethyl)-1,2,3,4-tetrahydro-quinazolin-7-yl]-acrylic acid methyl ester] | 0.031 µg/mL (≈ 0.0535 µM) |
| O=C1CSc2ccc(N3C[C@H](CCCn4c(=O)[nH]c5c(Cl)cccc5c4=O)OC3=O)cc2N1 [Example 29, 8-chloro-3-{3-[(S)-2-oxo-3-(3-oxo-3,4-dihydro-2H-benzo[1,4]-thiazin-6-yl)-oxazolidin-5-yl]-propyl}-1H-quinazoline-2,4-dione] | ≤ 0.016 µg/mL |
| Cn1c(=O)n(CCCC[C@@H]2CN(c3ccc4c(n3)NC(=O)CS4)C(=O)O2)c(=O)c2ccccc21 [Example 51, 1-methyl-3-{4-[(R)-2-oxo-3-(3-oxo-3,4-dihydro-2H-pyrido[3,2-b][1,4]thiazin-6-yl)-oxazolidin-5-yl]-butyl}-1H-quinazoline-2,4-dione] | ≤ 0.016 µg/mL |
| Cn1c(=O)n(CC(O)CC[C@@H]2CN(c3ccc4c(n3)NC(=O)CS4)C(=O)O2)c(=O)c2ccccc21 (mixture of isomers) [Example 50, 3-{(RS)-2-hydroxy-4-[(R)-2-oxo-3-(3-oxo-3,4-dihydro-2H-pyrido[3,2-b][1,4]thiazin-6-yl)-oxazolidin-5-yl]-butyl}-1-methyl-1H-quinazoline-2,4-dione] | 0.125 µg/mL |
| O=C1CSc2ccc(N3C[C@@H](CCCn4c(=O)[nH]c5c(Cl)cccc5c4=O)OC3=O)cc2N1 [Example 21, 8-chloro-3-{3-[(R)-2-oxo-3-(3-oxo-3,4-dihydro-2H-benzo[1,4]thiazin-6-yl)-oxazolidin-5-yl]-propyl}-1H-quinazoline-2,4-dione] | ≤ 0.016 µg/mL |
| O=C1CSc2ccc(N3C[C@H](CCCn4c(=O)[nH]c5cc6ccccc6cc5c4=O)OC3=O)cc2N1 [Example 42, 3-{3-[(S)-2-oxo-3-(3-oxo-3,4-dihydro-2H-benzo[1,4]-thiazin-6-yl)-oxazolidin-5-yl]-propyl}-1H-benzo[g]quinazoline-2,4-dione] | 0.031 µg/mL (≈ 0.0617 µM) |
| Cc1cccc2[nH]c(=O)n(CCC[C@@H]3CN(c4ccc5c(c4)NC(=O)CS5)C(=O)O3)c(=O)c12 [Example 5, 5-methyl-3-{3-[(R)-2-oxo-3-(3-oxo-3,4-dihydro-2H-benzo[1,4]-thiazin-6-yl)-oxazolidin-5-yl]-propyl}-1H-quinazoline-2,4-dione] | ≤ 0.016 µg/mL |
| O=C1CSc2ccc(N3C[C@@H](CCCn4c(=O)[nH]c5c(F)cccc5c4=O)OC3=O)cc2N1 [Example 32, 8-fluoro-3-{3-[(R)-2-oxo-3-(3-oxo-3,4-dihydro-2H-benzo[1,4]thiazin-6-yl)-oxazolidin-5-yl]-propyl}-1H-quinazoline-2,4-dione] | 0.031 µg/mL (≈ 0.0659 µM) |
| Cc1cccc2[nH]c(=O)n(CCC[C@@H]3CN(c4ccc5c(n4)NC(=O)CO5)C(=O)O3)c(=O)c12 [Example 9, 5-methyl-3-{3-[(R)-2-oxo-3-(3-oxo-3,4-dihydro-2H-pyrido[3,2-b][1,4]oxazin-6-yl)-oxazolidin-5-yl]-propyl}-1H-quinazoline-2,4-dione] | 0.031 µg/mL (≈ 0.0687 µM) |
| Cc1cccc2[nH]c(=O)n(CCNC[C@@H]3CN(c4ccc5c(c4)NC(=O)CS5)C(=O)O3)c(=O)c12 [Example 59, 5-methyl-3-(2-{[(R)-2-oxo-3-(3-oxo-3,4-dihydro-2H-benzo[1,4]thiazin-6-yl)-oxazolidin-5-ylmethyl]-amino}-ethyl)-1H-quinazoline-2,4-dione] | 0.25 µg/mL (≈ 0.519 µM) |
| Cc1cccc2c(=O)n(CCC[C@@H]3CN(c4ccc5c(n4)NC(=O)CO5)C(=O)O3)c(=O)[nH]c12 [Example 15, 8-methyl-3-{3-[(R)-2-oxo-3-(3-oxo-3,4-dihydro-2H-pyrido[3,2-b][1,4]oxazin-6-yl)-oxazolidin-5-yl]-propyl}-1H-quinazoline-2,4-dione] | 0.063 µg/mL (≈ 0.14 µM) |
| O=C1CSc2ccc(N3C[C@@H](CCCn4c(=O)[nH]c5ccc(Cl)cc5c4=O)OC3=O)cc2N1 [Example 25, 6-chloro-3-{3-[(R)-2-oxo-3-(3-oxo-3,4-dihydro-2H-benzo[1,4]-thiazin-6-yl)-oxazolidin-5-yl]-propyl}-1H-quinazoline-2,4-dione] | 0.063 µg/mL (≈ 0.129 µM) |
